Measured values reported in patent publication US20230310428A1, “EGFR INHIBITOR AND PREPARATION METHOD AND USE THEREOF” (HONGYUN BIOTECH CO., LTD., priority 2020, published 2023).
Like-named read-outs stand apart in the source and are kept apart here.

Experiments:
Test in all cases: Growth inhibitory activity of compounds on BaF3 cell lines stably transfected with kinase (MTS, 48 h)
Assay type in all cases: cell-based
[1] = target: T1, various mutants of kinase EGFR (BaF3 cell lines stably transfected with kinase) (Homo sapiens, UniProt P00533, C797S/L858R/T790M)
T1 construct: expressed in transfected cells; host or cells: BaF3
Outline: (§1)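 Transfected cells received compound (max 10 µM, 8 concentrations) for 48 h; MTS readout at 490 nm yielded IC50.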

[2] = target: T2, various mutants of kinase EGFR (BaF3 cell lines stably transfected with kinase) (Homo sapiens, UniProt P00533, T790M, form not given)
T2 construct: other: BaF3 cells stably transfected with EGFR Δ19Del/T790M; MTS, 48 h; other: BaF3 cell line stably transfected with EGFR Δ19Del/T790M; MTS, 48
Outline: as §1

[3] = target: T3, various mutants of kinase EGFR (BaF3 cell lines stably transfected with kinase) (Homo sapiens, UniProt P00533, L858R)
T3 construct: expressed in transfected cells; host or cells: BaF3
Outline: as §1

[4] = target: T4, various mutants of kinase EGFR (BaF3 cell lines stably transfected with kinase) (Homo sapiens, UniProt P00533)
T4 construct: other: BaF3 cells stably transfected with EGFR Δ19Del; MTS, 48 h; other: BaF3 cell line stably transfected with EGFR Δ19Del
Outline: as §1

[5] = target: T5, various mutants of kinase EGFR (BaF3 cell lines stably transfected with kinase) (Homo sapiens, UniProt P00533, L858R/T790M)
T5 construct: expressed in transfected cells; host or cells: BaF3
Outline: as §1

[6] = target: T6, various mutants of kinase EGFR (BaF3 cell lines stably transfected with kinase) (Homo sapiens, UniProt P00533, T790M/C797S, form not given)
T6 construct: other: BaF3 cells stably transfected with EGFR Δ19Del/T790M/C797S; MTS, 48; other: BaF3 cell line stably transfected with EGFR Δ19Del/T790M/C7
Outline: as §1

[7] = BaF3 cell line stably transfected with EGFR L858R/T790M/C797S, read-out: L858R/T790M/ C797S growth inhibitory activity IC50
[8] = BaF3 cell line stably transfected with EGFR Δ19Del/T790M, read-out: Δ19Del/ T790M growth inhibitory activity IC50
[9] = BaF3 cell line stably transfected with EGFR L858R, read-out: L858R growth inhibitory activity IC50
[10] = BaF3 cell line stably transfected with EGFR Δ19Del, read-out: Δ19Del growth inhibitory activity IC50
[11] = BaF3 cell line stably transfected with EGFR L858R/T790M, read-out: L858R/ T790M growth inhibitory activity IC50
[12] = BaF3 cell line stably transfected with EGFR Δ19Del/T790M/C797S, read-out: Δ19Del/T790M/ C797S growth inhibitory activity IC50
[13] = BaF3 cells stably transfected with EGFR L858R/T790M/C797S, read-out: IC50, growth inhibition, L858R/T790M/C797S
[14] = BaF3 cells stably transfected with EGFR Δ19Del/T790M, read-out: IC50, growth inhibition, Δ19Del/T790M
[15] = BaF3 cells stably transfected with EGFR L858R, read-out: IC50, growth inhibition, L858R
[16] = BaF3 cells stably transfected with EGFR Δ19Del, read-out: IC50, growth inhibition, Δ19Del
[17] = BaF3 cells stably transfected with EGFR L858R/T790M, read-out: IC50, growth inhibition, L858R/T790M
[18] = BaF3 cells stably transfected with EGFR Δ19Del/T790M/C797S, read-out: IC50, growth inhibition, Δ19Del/T790M/C797S

T4 sequence (P00533 with tags, fused parts or gaps DEL746-750): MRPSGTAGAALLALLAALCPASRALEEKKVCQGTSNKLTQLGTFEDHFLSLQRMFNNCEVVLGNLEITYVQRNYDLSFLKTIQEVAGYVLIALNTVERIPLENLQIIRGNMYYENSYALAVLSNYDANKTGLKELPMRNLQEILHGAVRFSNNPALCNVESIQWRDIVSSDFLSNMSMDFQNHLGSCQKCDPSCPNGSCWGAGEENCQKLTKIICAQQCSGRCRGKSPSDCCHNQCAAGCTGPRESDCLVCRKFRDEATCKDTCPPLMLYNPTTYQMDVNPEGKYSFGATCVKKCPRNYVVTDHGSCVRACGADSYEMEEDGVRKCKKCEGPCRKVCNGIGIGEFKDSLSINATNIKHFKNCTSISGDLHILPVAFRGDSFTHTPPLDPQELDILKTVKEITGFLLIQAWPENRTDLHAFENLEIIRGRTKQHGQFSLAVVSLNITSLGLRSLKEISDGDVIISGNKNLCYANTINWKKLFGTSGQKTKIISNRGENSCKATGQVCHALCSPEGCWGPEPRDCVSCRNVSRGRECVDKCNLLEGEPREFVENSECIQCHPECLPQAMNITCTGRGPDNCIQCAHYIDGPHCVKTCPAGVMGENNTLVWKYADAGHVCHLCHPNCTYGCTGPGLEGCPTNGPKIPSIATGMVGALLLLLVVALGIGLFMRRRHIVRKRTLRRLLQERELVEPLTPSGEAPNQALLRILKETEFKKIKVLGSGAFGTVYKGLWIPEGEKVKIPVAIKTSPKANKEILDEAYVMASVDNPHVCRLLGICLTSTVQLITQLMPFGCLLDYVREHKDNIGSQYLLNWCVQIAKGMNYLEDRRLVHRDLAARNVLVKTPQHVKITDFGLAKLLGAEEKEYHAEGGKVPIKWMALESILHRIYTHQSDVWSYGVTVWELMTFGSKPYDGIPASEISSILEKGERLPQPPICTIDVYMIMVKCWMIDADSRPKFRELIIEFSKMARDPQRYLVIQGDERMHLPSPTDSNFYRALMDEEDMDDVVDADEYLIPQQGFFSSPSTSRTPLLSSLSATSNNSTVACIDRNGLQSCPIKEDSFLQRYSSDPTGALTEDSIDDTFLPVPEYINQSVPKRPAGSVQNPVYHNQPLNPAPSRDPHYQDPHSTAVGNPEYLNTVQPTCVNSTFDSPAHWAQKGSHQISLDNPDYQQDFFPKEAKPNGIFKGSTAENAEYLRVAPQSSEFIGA
T5 sequence (P00533 25-1210 T790M/L858R): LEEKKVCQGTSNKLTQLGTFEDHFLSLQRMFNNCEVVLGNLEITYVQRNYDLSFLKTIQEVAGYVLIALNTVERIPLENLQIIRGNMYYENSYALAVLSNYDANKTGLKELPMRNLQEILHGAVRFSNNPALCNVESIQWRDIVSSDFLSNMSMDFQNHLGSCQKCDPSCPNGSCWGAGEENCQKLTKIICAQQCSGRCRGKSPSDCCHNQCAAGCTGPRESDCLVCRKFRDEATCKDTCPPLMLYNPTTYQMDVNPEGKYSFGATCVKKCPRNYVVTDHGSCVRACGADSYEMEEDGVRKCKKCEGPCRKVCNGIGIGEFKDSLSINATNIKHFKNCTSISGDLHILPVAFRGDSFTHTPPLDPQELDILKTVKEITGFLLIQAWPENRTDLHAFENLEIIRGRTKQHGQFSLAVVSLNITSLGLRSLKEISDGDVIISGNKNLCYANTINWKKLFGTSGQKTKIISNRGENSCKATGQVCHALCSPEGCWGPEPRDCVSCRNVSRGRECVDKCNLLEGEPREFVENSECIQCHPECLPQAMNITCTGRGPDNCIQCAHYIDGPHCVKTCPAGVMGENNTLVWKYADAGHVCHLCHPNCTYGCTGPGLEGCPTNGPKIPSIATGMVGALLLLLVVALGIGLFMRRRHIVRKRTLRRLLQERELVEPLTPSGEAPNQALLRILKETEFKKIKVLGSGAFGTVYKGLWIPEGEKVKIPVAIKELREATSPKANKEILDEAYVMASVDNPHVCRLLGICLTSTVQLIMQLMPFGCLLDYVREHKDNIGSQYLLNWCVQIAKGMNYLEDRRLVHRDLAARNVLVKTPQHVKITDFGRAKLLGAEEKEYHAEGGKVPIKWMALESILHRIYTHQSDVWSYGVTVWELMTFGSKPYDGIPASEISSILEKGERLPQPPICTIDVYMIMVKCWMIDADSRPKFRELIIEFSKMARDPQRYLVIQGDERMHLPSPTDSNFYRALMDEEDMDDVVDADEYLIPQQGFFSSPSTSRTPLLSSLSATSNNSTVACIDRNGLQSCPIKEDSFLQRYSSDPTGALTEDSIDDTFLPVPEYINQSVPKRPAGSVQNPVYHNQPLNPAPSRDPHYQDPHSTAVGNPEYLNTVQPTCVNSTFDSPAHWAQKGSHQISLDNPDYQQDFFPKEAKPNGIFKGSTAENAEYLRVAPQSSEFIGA
T6 sequence (P00533 with tags, fused parts or gaps DEL746-750/T790M/C797S, form open): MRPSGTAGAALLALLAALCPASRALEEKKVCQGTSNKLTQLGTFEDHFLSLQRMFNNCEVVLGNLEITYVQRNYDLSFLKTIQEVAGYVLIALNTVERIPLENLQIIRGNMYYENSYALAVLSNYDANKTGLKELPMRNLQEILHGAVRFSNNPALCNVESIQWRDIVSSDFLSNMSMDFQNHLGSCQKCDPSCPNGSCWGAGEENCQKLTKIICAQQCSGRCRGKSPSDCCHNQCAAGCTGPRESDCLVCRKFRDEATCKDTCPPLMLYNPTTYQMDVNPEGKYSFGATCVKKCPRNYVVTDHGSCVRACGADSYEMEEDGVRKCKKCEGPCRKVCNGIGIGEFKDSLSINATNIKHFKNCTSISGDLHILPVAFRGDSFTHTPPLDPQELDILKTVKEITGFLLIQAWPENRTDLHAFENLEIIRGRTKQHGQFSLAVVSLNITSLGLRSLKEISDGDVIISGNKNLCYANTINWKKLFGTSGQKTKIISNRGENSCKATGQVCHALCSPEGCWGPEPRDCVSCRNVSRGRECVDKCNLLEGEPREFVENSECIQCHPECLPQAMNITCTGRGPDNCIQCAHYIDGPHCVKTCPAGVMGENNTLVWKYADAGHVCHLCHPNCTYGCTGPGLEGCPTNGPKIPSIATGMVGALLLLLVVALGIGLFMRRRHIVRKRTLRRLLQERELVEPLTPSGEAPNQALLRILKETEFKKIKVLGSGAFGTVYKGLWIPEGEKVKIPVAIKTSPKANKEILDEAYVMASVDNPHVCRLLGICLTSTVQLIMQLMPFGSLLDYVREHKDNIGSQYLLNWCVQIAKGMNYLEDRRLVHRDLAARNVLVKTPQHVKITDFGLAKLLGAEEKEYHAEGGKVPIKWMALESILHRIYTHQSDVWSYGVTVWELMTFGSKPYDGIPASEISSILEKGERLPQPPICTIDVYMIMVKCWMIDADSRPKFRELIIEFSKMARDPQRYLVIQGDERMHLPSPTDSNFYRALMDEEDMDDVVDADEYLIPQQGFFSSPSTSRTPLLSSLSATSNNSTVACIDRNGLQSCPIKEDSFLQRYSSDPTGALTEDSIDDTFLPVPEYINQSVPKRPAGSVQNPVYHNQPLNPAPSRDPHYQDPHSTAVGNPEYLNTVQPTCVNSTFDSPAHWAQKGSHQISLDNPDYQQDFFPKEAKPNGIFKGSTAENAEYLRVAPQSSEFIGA
T1 sequence (P00533 25-1210 T790M/C797S/L858R): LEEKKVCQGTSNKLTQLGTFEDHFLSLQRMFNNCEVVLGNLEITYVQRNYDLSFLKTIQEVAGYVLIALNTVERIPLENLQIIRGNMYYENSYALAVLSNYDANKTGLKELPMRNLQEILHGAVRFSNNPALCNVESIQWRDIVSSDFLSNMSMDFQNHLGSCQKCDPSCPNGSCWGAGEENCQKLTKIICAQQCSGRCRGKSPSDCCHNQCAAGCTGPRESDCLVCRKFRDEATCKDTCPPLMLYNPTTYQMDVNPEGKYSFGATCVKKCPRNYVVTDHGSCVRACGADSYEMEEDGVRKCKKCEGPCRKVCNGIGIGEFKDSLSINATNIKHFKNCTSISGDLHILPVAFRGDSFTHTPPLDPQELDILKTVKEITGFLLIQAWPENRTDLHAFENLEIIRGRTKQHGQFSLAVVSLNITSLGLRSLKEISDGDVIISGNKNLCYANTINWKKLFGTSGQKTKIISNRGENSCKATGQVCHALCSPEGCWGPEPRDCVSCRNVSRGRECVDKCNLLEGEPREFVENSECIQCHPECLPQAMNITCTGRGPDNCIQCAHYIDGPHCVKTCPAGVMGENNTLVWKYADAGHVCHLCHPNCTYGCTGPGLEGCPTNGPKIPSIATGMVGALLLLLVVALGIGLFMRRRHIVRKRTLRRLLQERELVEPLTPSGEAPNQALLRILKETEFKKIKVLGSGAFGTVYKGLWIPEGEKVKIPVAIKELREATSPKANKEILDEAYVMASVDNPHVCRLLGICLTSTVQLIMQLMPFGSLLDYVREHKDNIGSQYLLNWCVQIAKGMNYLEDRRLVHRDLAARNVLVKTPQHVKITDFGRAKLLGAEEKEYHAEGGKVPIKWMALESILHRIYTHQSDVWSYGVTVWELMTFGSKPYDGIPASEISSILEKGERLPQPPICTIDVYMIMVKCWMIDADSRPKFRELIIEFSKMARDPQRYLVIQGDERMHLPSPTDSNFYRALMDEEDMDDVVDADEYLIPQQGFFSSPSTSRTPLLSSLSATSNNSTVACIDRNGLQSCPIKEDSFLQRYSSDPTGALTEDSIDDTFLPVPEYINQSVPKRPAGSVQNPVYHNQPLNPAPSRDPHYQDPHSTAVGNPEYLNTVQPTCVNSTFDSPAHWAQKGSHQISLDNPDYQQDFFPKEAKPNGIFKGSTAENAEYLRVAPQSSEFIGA

IC50 [1, 7] | IC50 [2, 8] | IC50 [3, 9] | IC50 [4, 10] | IC50 [5, 11] | IC50 [6, 12] | IC50 [1, 13] | IC50 [2, 14] | IC50 [3, 15] | IC50 [4, 16] | IC50 [5, 17] | IC50 [6, 18] | SMILES
≤ 50 nM | 50 to 500 nM | 50 to 500 nM | 50 to 500 nM | 50 to 500 nM | ≤ 50 nM |  |  |  |  |  |  | CCc1cc(Nc2ncc(Br)c(Nc3ccc4nccnc4c3N(C)S(C)(=O)=O)n2)c(OC)cc1NCCN(C)C [Compound I-391]
500 to 2500 nM | 500 to 2500 nM | 50 to 500 nM | 500 to 2500 nM | 500 to 2500 nM | 50 to 500 nM |  |  |  |  |  |  | COc1ccc(N2CCC(O)CC2)cc1Nc1ncc(F)c(Nc2ccc3nccnc3c2N(C)S(=O)(=O)C2CC2)n1 [Compound I-373]
≤ 50 nM | ≤ 50 nM | 50 to 500 nM | 50 to 500 nM | 50 to 500 nM | ≤ 50 nM |  |  |  |  |  |  | CCc1cc(Nc2ncc(C(C)C)c(Nc3ccc4nccnc4c3N(C)S(C)(=O)=O)n2)c(OC)cc1N1CCC(N(C)C)C1 (stereo not drawn) [Compound I-331]
50 to 500 nM | ≤ 50 nM | 50 to 500 nM | 50 to 500 nM | ≤ 50 nM | ≤ 50 nM |  |  |  |  |  |  | COc1cc(N2CCC(N3CCN(C)CC3)CC2)c(CC2CC2)cc1Nc1ncc(Br)c(Nc2ccc3nccnc3c2N(C2CC2)S(C)(=O)=O)n1 [Compound I-308]
 |  |  |  |  |  | 50 to 500 nM | 50 to 500 nM | 50 to 500 nM | 50 to 500 nM | 50 to 500 nM | ≤ 50 nM | CCS(=O)(=O)N(C)c1c(Nc2nc(Nc3ccc(N4CCC(N5CCN(C)CC5)CC4)cc3OC)ncc2Cl)ccc2nccnc12 [Compound I-294]
 |  |  |  |  |  | ≤ 50 nM | ≤ 50 nM | ≤ 50 nM | ≤ 50 nM | ≤ 50 nM | ≤ 50 nM | CCc1cc(Nc2ncc(OC)c(Nc3ccc4nccnc4c3N(C)S(C)(=O)=O)n2)c(OC(F)(F)F)cc1N1CCC(N2CCN(C)CC2)CC1 [Compound I-281]
≤ 50 nM | ≤ 50 nM | ≤ 50 nM | ≤ 50 nM | ≤ 50 nM | ≤ 50 nM |  |  |  |  |  |  | CCc1cc(Nc2ncc(CC)c(Nc3ccc4nccnc4c3N(C)S(C)(=O)=O)n2)ccc1N1CCC(N2CCN(C)CC2)CC1 [Compound I-319]
50 to 500 nM | 50 to 500 nM | 50 to 500 nM | 50 to 500 nM | 50 to 500 nM | ≤ 50 nM |  |  |  |  |  |  | COc1cc(N2CCC(N3CCN(C)CC3)CC2)ccc1Nc1ncc(C(C)C)c(Nc2ccc3nccnc3c2N(C)S(C)(=O)=O)n1 [Compound I-325]
≤ 50 nM | ≤ 50 nM | 50 to 500 nM | 50 to 500 nM | ≤ 50 nM | ≤ 50 nM |  |  |  |  |  |  | CCc1cc(Nc2nc(Nc3ccc4nccnc4c3N(C)S(C)(=O)=O)c3cc[nH]c3n2)c(OC)nc1N1CCC(N2CCN(C)CC2)CC1 [II-2-7]
≤ 50 nM | 50 to 500 nM | 50 to 500 nM | 50 to 500 nM | 50 to 500 nM | ≤ 50 nM |  |  |  |  |  |  | COc1cc(N2CCC(N3CCN(C)CC3)CC2)ccc1Nc1ncc(Cl)c(Nc2ccc3nccnc3c2N(C2CC2)S(C)(=O)=O)n1 [Compound I-303]
≤ 50 nM | ≤ 50 nM | 50 to 500 nM | 50 to 500 nM | ≤ 50 nM | ≤ 50 nM |  |  |  |  |  |  | C=Cc1cc(Nc2nc(Nc3ccc4nccnc4c3N(C)S(C)(=O)=O)c3cc[nH]c3n2)c(OC(F)(F)F)cc1N1CCC(N2CCN(C)CC2)CC1 [II-2-9]
 |  |  |  |  |  | 50 to 500 nM | 50 to 500 nM | 50 to 500 nM | 50 to 500 nM | 50 to 500 nM | 50 to 500 nM | CCc1cc(Nc2ncc(Cl)c(Nc3ccc4nccnc4c3N(C)S(=O)(=O)C(F)(F)F)n2)c(OC)cc1N1CCN(C)CC1 [Compound I-267]
 |  |  |  |  |  | ≤ 50 nM | ≤ 50 nM | ≤ 50 nM | ≤ 50 nM | ≤ 50 nM | ≤ 50 nM | CCN(c1c(Nc2nc(Nc3cc(C)c(N4CCC(N(C)C)CC4)cc3OC)ncc2Cl)ccc2nccnc12)S(C)(=O)=O [Compound I-230]
 |  |  |  |  |  | ≤ 50 nM | ≤ 50 nM | ≤ 50 nM | ≤ 50 nM | ≤ 50 nM | ≤ 50 nM | CCc1cc(Nc2ncc(Cl)c(Nc3ccc4nccnc4c3N(C)S(C)(=O)=O)n2)c(OC)cc1N1CCC(N(C)C)C1 (stereo not drawn) [Compound I-174]
 |  |  |  |  |  | 50 to 500 nM | ≤ 50 nM | 50 to 500 nM | 50 to 500 nM | 50 to 500 nM | ≤ 50 nM | CCc1cc(Nc2ncc(Cl)c(Nc3ccc4nccnc4c3N(C)S(=O)(=O)C(C)C)n2)c(OC)cc1N1CCC(N(C)C)C1 (stereo not drawn) [Compound I-143]
 |  |  |  |  |  | ≤ 50 nM | ≤ 50 nM | ≤ 50 nM | 50 to 500 nM | ≤ 50 nM | ≤ 50 nM | COc1cc(N2CCC(N(C)C)C2)c(C)cc1Nc1ncc(Br)c(Nc2ccc3nccnc3c2N(C)S(C)(=O)=O)n1 (stereo not drawn) [Compound I-14]
 |  |  |  |  |  | 50 to 500 nM | 50 to 500 nM | ≤ 50 nM | ≤ 50 nM | ≤ 50 nM | ≤ 50 nM | CCc1cc(Nc2ncc(F)c(Nc3ccc4nccnc4c3N(C)S(=O)(=O)C3CC3)n2)c(OC)cc1N1CCC(N2CCN(C)CC2)CC1 [Compound I-249]
 |  |  |  |  |  | ≤ 50 nM | ≤ 50 nM | 50 to 500 nM | 50 to 500 nM | ≤ 50 nM | ≤ 50 nM | CCc1cc(Nc2ncc(Cl)c(Nc3ccc4nccnc4c3N(C)S(=O)(=O)CC)n2)c(OC)nc1N1CCC(N2CCN(C)CC2)CC1 [Compound I-234]
50 to 500 nM | 500 to 2500 nM | 500 to 2500 nM | 500 to 2500 nM | 500 to 2500 nM | 50 to 500 nM |  |  |  |  |  |  | CCc1cc(Nc2nc(Nc3ccc4nccnc4c3N(C)S(C)(=O)=O)c3sccc3n2)c(OC)cc1N1CCN(C)CC1 [II-1-15]
50 to 500 nM | ≤ 50 nM | 50 to 500 nM | ≤ 50 nM | 50 to 500 nM | 50 to 500 nM |  |  |  |  |  |  | CCOc1cnc(Nc2cc(CC)c(N3CCC(N4CCN(C)CC4)CC3)cc2OC)nc1Nc1ccc2nccnc2c1N(C)S(C)(=O)=O [Compound I-337]
 |  |  |  |  |  | ≤ 50 nM | 50 to 500 nM | 50 to 500 nM | 50 to 500 nM | ≤ 50 nM | ≤ 50 nM | CCN(c1c(Nc2nc(Nc3cc(CC4CC4)c(N4CCC(N5CCN(C)CC5)CC4)cc3OC)ncc2Cl)ccc2nccnc12)S(C)(=O)=O [Compound I-229]
≤ 50 nM | 500 to 2500 nM | 500 to 2500 nM | 500 to 2500 nM | 500 to 2500 nM | 50 to 500 nM |  |  |  |  |  |  | Cc1cc(Nc2ncc(Br)c(Nc3ccc4nccnc4c3N(C)S(C)(=O)=O)n2)nn1C [Compound I-385]
 |  |  |  |  |  | ≤ 50 nM | ≤ 50 nM | 50 to 500 nM | 50 to 500 nM | ≤ 50 nM | ≤ 50 nM | COc1cc(N2CCC(N3CCN(C)CC3)CC2)c(C2CC2)cc1Nc1ncc(Cl)c(Nc2ccc3nccnc3c2N(C)S(C)(=O)=O)n1 [Compound I-287]
 |  |  |  |  |  | ≤ 50 nM | ≤ 50 nM | ≤ 50 nM | ≤ 50 nM | ≤ 50 nM | ≤ 50 nM | CCc1cc(Nc2ncc(OC)c(Nc3ccc4nccnc4c3N(C)S(C)(=O)=O)n2)c(OC)cc1N1CCC(N(C)C)CC1 [Compound I-282]
≤ 50 nM | ≤ 50 nM | ≤ 50 nM | ≤ 50 nM | ≤ 50 nM | ≤ 50 nM |  |  |  |  |  |  | CCc1cc(Nc2ncc(Br)c(Nc3ccc4nccnc4c3NS(C)(=O)=O)n2)c(OC)cc1N1CCC(N(C)C)C1 (stereo not drawn) [Compound I-412]
